Data set [1] deals with T1, p38 MAP kinase (Homo sapiens, UniProt Q16539).
T1 construct: made in house; host or cells: E. coli (co-expressed with SEK-1 and MEKK)
Put plainly: p38 (MAP) kinase in vitro assay, transfer of γ-33P-phosphate from ATP to Myelin Basic Protein. In kind it is biochemical. The following applies: phosphorylated recombinant p38 MAP kinase, MBP substrate, γ-33P-ATP, 30° C. On the procedure:
This example illustrates a p38 (MAP) kinase in vitro assay useful for evaluating the compounds of the invention.
The p38 MAP kinase inhibitory activity of compounds of this invention in vitro was determined by measuring the transfer of the γ-phosphate from γ-^33P-ATP by p-38 kinase to Myelin Basic Protein (MBP), using a minor modification of the method described in Ahn, et al., J. Biol. Chem. 266:4220-4227 (1991).
The phosphorylated form of the recombinant p38 MAP kinase was co-expressed with SEK-1 and MEKK in E. Coli (see, Khokhlatchev, et al., J. Biol. Chem. 272:11057-11062 (1997)) and then purified by affinity chromatography using a Nickel column.
The phosphorylated p38 MAP kinase was diluted in kinase buffer (20 mM 3-(N-morpholino)propanesulfonic acid, pH 7.2, 25 mM β-glycerol phosphate, 5 mM ethylene glycol-bis(beta-aminoethyl ether)-N,N,N′,N′-tetraacetic acid, 1 mM sodium ortho-vanadate, 1 mM dithiothreitol, 40 mM magnesium chloride). Test compound dissolved in DMSO or only DMSO (control) was added and the samples were incubated for 10 min at 30° C. The kinase reaction was initiated by the addition of a substrate cocktail containing MBP and γ-^33P-ATP. […] The phosphorylated MBP was then separated from the residual γ-^33P-ATP using a phosphocellulose membrane (Millipore, Bedford, Mass.) and quantitated using a scintillation counter (Packard, Meriden, Conn.).

T1 sequence (Q16539 whole entry): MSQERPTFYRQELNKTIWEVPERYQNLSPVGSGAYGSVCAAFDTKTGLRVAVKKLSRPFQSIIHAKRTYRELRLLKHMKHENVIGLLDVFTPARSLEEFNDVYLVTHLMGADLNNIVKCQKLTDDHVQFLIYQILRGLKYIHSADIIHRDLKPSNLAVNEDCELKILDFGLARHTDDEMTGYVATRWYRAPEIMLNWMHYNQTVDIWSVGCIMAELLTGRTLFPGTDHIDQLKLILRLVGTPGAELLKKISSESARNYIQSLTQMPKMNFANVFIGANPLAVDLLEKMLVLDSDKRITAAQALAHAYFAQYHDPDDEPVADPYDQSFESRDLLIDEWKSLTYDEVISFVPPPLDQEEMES

Usually IC50 stands for the midpoint of a concentration-inhibition curve. On to `OC[C@@H](O)CNc1nc(Oc2ccc(F)cc2F)nc2[nH]nc(-c3ccccc3Cl)c12` [3-[3-(2-Chloro-phenyl)-6-(2,4-difluoro-phenoxy)-1H-pyrazolo[3,4-d]pyrimidin-4-ylamino]-propane-1,2-diol], for which, in data set [1], the half-inhibitory concentration (IC50) was 4 nM.
As a reminder, the melting point is the temperature of the solid-liquid transition. With `C[C@H](O)CNc1nc(Oc2ccc(F)cc2F)nc2[nH]nc(-c3ccccc3Cl)c12` [Example 1, (S)-1-[3-(2-chlorophenyl)-6-(2,4-difluorophenoxy)-1H-pyrazolo[3,4-d]pyrimidin-4-ylamino]propan-2-ol], the melting point was 254.6 to 258.2 °C.
On to `OC[C@H](O)COc1nc(Oc2ccc(F)cc2F)nc2[nH]nc(-c3ccccc3Cl)c12` [Example 5, (S)-3-[3-(2-Chloro-phenyl)-6-(2,4-difluoro-phenoxy)-1H-pyrazolo[3,4-d]pyrimidin-4-yloxy]-propane-1,2-diol], for which the melting point fell in the range of 179.2 to 181.3 °C.
`C[C@H](O)CNc1nc(Oc2ccc(F)cc2F)cc2[nH]nc(-c3ccccc3Cl)c12` [Example 9, (S)-1-[3-(2-Chloro-phenyl)-6-(2,4-difluoro-phenoxy)-1H-pyrazolo[4,3-c]pyridin-4-ylamino]-propan-2-ol] returned a melting point of 171.2 to 172 °C.
For `C[C@H](O)CNc1cc(Oc2ccc(F)cc2F)nc2[nH]nc(-c3ccccc3Cl)c12` [Example 10, (S)-1-[3-(2-Chloro-phenyl)-6-(2,4-difluoro-phenoxy)-1H-pyrazolo[3,4-b]pyridin-4-ylamino]-propan-2-ol], the melting point was in the range of 237.9 to 238.5 °C.

Source of the values: patent US7435731B2, “Substituted pyrazolo[3,4-d]pyrimadines and methods of using the same” (Roche Palo Alto LLC, priority 2004, dated 2008).
